Assays:
Type in all cases: in vivo
Parameters in all cases: key: 5=total damage to plant; 0=no damage to plant
Lolium perenne (LOLPE) [1] = experiment: Pre-emergence herbicidal activity, glasshouse pot test; details: Rate 1000 g/ha; sprayed one day after sowing; evaluated after 13 days
Description: (§1) Seeds of a variety of test species were sown in standard soil in pots: Triticum aestivium (TRZAW), Avena fatua (AVEFA), Alopecurus myosuroides (ALOMY), Echinochloa crus-galli (ECHCG), Lolium perenne (LOLPE), and Setaria faberi (SETFA). After cultivation for one day (pre-emergence) under controlled conditions in a glasshouse (at 24/16° C., day/night; 14 hours light; 65% humidity), the plants were sprayed with an aqueous spray solution derived from the formulation of the technical active ingredient in acetone/water (50:50) solution containing 0.5% Tween 20 (polyoxyethelyene sorbitan monolaurate, CAS RN 9005-64-5). The test plants were then grown in a glasshouse under controlled conditions (at 24/16° C., day/night; 14 hours light; 65% humidity) and watered twice daily. After 13 days, the test was evaluated (5=total damage to plant; 0=no damage to plant).

Setaria faberi (SETFA) [2] = experiment: as above; details: Rate 1000 g/ha; sprayed one day after sowing; evaluated after 13 days
Description: as §1

[3] = test system: Echinochloa crus-galli (ECHCG); experiment: as above; details: Rate 1000 g/ha; sprayed one day after sowing; evaluated after 13 days
Description: as §1

[4] = test system: Alopecurus myosuroides (ALOMY); experiment: as above; details: Rate 1000 g/ha; sprayed one day after sowing; evaluated after 13 days
Description: as §1

[5] = test system: Triticum aestivium (TRZAW); experiment: as above; details: Rate 1000 g/ha; sprayed one day after sowing; evaluated after 13 days
Description: as §1

Avena fatua (AVEFA) [6] = experiment: as above; details: Rate 1000 g/ha; sprayed one day after sowing; evaluated after 13 days
Description: as §1

Lolium perenne (LOLPE) [7] = experiment: Post-emergence herbicidal activity, glasshouse pot test; details: Rate 1000 g/ha; sprayed after 8 days cultivation; evaluated after 13 days
Description: (§2) Seeds of a variety of test species were sown in standard soil in pots: Triticum aestivium (TRZAW), Avena fatua (AVEFA), Alopecurus myosuroides (ALOMY), Echinochloa crus-galli (ECHCG), Lolium perenne (LOLPE), and Setaria faberi (SETFA). After 8 days cultivation (post-emergence) under controlled conditions in a glasshouse (at 24/16° C., day/night; 14 hours light; 65% humidity), the plants were sprayed with an aqueous spray solution derived from the formulation of the technical active ingredient in acetone/water (50:50) solution containing 0.5% Tween 20 (polyoxyethelyene sorbitan monolaurate, CAS RN 9005-64-5). The test plants were then grown in a glasshouse under controlled conditions (at 24/16° C., day/night; 14 hours light; 65% humidity) and watered twice daily. After 13 days, the test was evaluated (5=total damage to plant; 0=no damage to plant).

Setaria faberi (SETFA) [8] = experiment: as above; details: Rate 1000 g/ha; sprayed after 8 days cultivation; evaluated after 13 days
Description: as §2

[9] = test system: Echinochloa crus-galli (ECHCG); experiment: as above; details: Rate 1000 g/ha; sprayed after 8 days cultivation; evaluated after 13 days
Description: as §2

[10] = test system: Alopecurus myosuroides (ALOMY); experiment: as above; details: Rate 1000 g/ha; sprayed after 8 days cultivation; evaluated after 13 days
Description: as §2

[11] = test system: Triticum aestivium (TRZAW); experiment: as above; details: Rate 1000 g/ha; sprayed after 8 days cultivation; evaluated after 13 days
Description: as §2

Avena fatua (AVEFA) [12] = experiment: as above; details: Rate 1000 g/ha; sprayed after 8 days cultivation; evaluated after 13 days
Description: as §2

| Compound | Control of weed species after pre-emergence application, LOLPE (damage score 0-5) (Lolium perenne (LOLPE) [1]) | Control of weed species after pre-emergence application, SETFA (damage score 0-5) (Setaria faberi (SETFA) [2]) | Control of weed species after pre-emergence application, ECHCG (damage score 0-5) [3] | Control of weed species after pre-emergence application, ALOMY (damage score 0-5) [4] | Control of weed species after pre-emergence application, TRAZW (damage score 0-5) [5] | Control of weed species after pre-emergence application, AVEFA (damage score 0-5) (Avena fatua (AVEFA) [6]) | Control of weed species after post-emergence application, LOLPE (damage score 0-5) (Lolium perenne (LOLPE) [7]) | Control of weed species after post-emergence application, SETFA (damage score 0-5) (Setaria faberi (SETFA) [8]) | Control of weed species after post-emergence application, ECHCG (damage score 0-5) [9] | Control of weed species after post-emergence application, ALOMY (damage score 0-5) [10] | Control of weed species after post-emergence application, TRAZW (damage score 0-5) [11] | Control of weed species after post-emergence application, AVEFA (damage score 0-5) (Avena fatua (AVEFA) [12]) |
| --- | --- | --- | --- | --- | --- | --- | --- | --- | --- | --- | --- | --- |
| CC(C)(C)OC(=O)Nc1ncc(-c2cncc(F)c2)nc1C(F)F [Compound H28] | 0 | 4 | 2 | 3 | 0 | 2 | 3 | 5 | 5 | 0 | 0 | 4 |
| CC(C)c1nc(-c2cncc(F)c2)cnc1N(C(=O)OC(C)(C)C)C(=O)OC(C)(C)C [Compound H13] | 0 | 4 | 1 | 0 | 0 | 0 | 1 | 5 | 2 | 0 | 1 | 1 |
| COc1nc(-c2cncc(F)c2)cnc1NC(=O)OC(C)(C)C [Compound H7] | 0 | 5 | 3 | 0 | 0 | 1 | 2 | 5 | 5 | 0 | 1 | 3 |
| CC(C)(C)OC(=O)N(C(=O)OC(C)(C)C)c1ncc(-c2cncnc2)nc1C(F)(F)F [Compound H1] | 1 | 4 | 4 | 0 | 0 | 2 | 3 | 5 | 5 | 0 | 0 | 4 |

From patent publication US11434221B2, “Pyrazine-4-carbamate or -urea derivatives as herbicides” (Syngenta Participations AG, priority 2017, dated 2022)
